# Measured values taken from US6649421B1, “Antibodies against phoshorylated VASP (vasodilator-stimulated phosphoprotein), hybridoma cells for their preparation, and their use” (Vasopharm Biotech GmbH, priority 1997, dated 2003).
# Tested on: VASP phosphorylation in rat thrombocytes
# Assay: Western blot of VASP phosphorylation in rat thrombocytes
# Assay type: cell-based
# Details: 5 min incubation
# Experimental: Rat thrombocytes (0.7×10^9 cell/ml) were incubated for 5 min with 100 μM sodium nitroprusside (SNP), with 10 μM prostaglandin E1(PgE1) or without either of these additions. The extracts of these rat thrombocytes were analyzed by Western blotting. […] Similar results are also obtained using mouse thrombocytes.
smiles,measurement,value
"CCCCC[C@H](O)/C=C/[C@H]1[C@H](O)CC(=O)[C@@H]1CCCCCCC(=O)O [PgE1, prostaglandin E1]",Phosphorylation-dependent shift of VASP from 46 kDa to 50 kDa (serine 157 phosphorylation),also took place in rat thrombocytes
same,Phosphorylation-dependent signal given by the 16C2 antibody (serine 239 phosphorylation),also took place in rat thrombocytes
